pEC50: −log10 of the molar value.
Columns and labels:
Phosphodiesterase 3 = Phosphodiesterase 3 (Homo sapiens, UniProt Q14432+Q13370); assay: Inhibition of guinea pig heart Phosphodiesterase 3; format: protein assay, Cavia porcellus; settings: target entry is the homologue from another species
Cavia porcellus = species on record: Cavia porcellus; assay: Increasing force in skinned fibers at constant buffered Ca-concentration; format: functional

| Structure (SMILES) | IC50 (Phosphodiesterase 3) [nM] | pEC50 (Cavia porcellus) |
| --- | --- | --- |
| COc1ccc(C(=O)N2CCCc3cc(C4=NNC(=O)SC4C)ccc32)cc1OC (stereo in doubt; form 1) | 60 | 5.32 |
| COc1ccc(C(=O)N2CCCc3cc(C4=NNC(=O)SC4C)ccc32)cc1OC (stereo in doubt; form 2) | 50 | < 4.00 |
| COc1ccc(C(=O)N2CCCc3cc(C4=NNC(=O)SC4C)ccc32)cc1OC (stereo in doubt; form 3) | 1940 | 5.77 |

— ChEMBL document CHEMBL1126424, “Preparation of the enantiomers of the novel CA-sensitizer EMD 53 998” (Bioorg Med Chem Lett, 1992)
